Assay results taken from publication PMC10790228 (Journal of medical virology, 2022).

Experiments:
[1] = tested on: HIV-1; conditions: cited from earlier work
[2] = tested on: wild-type HIV-2; assay: Anti-HIV-2 activity in MT-4 cells, MTT method; assay type: cell-based; conditions: read-out: EC50 HIV-2
[3] = target: binding of CPSF6 to CA hexamer; assay: SPR-based competition assay with CPSF6; parameters: species or system HIV-1; conditions: read-out: IC50 inhibition of CPSF6 binding to CA hexamer
[4] = tested on: HIV-1 NL4.3 virus; assay: Single-round infection assay, early and late stage; assay type: cell-based; conditions: compound at 1 μM, average of 3 replicates
[5] = tested on: MT-4 cells
[6] = target: HIV-1 CA hexamer; conditions: read-out: KD Hexamer; SPR, average of at least 3 replicates
[7] = human, microsomes
[8] = cited from earlier work
[9] = Metabolic stability in human liver microsomes; conditions: HLM, 0.5 mg protein/mL; for Remaining (NCF = 60min): no co-factor (no NADPH)

SMILES	anti-HIV-1 activity [1]	EC50 [2] [µM]	IC50 [3] [µM]	Infection (%) Early-stage [4] [%]	Infection (%) Late-stage [4] [%]	CC50 [5] [µM]	Kd [6] [µM]	CLint(mic) [7] [µL/min/mg]	EC50 ([1]; read-out: anti-HIV-1 potency EC50) [µM]	metabolic stability T1/2 [8] [s]	T1/2 [9] [s]	Remaining (T = 60min) [9] [%]	Remaining (NCF = 60min) [9] [%]	CLint(liver) ([9]; scaled from CLint(mic)) [L/h/kg]
CC(C)(C#Cc1ccc(-c2ccc(Cl)c3c(NS(C)(=O)=O)nn(CC(F)(F)F)c23)c([C@H](Cc2cc(F)cc(F)c2)NC(=O)Cn2nc(C(F)(F)F)c3c2C(F)(F)[C@@H]2C[C@H]32)n1)S(C)(=O)=O [GS-6207]	picomolar													
Cc1[nH]c2ccccc2c1CC(=O)N[C@@H](Cc1ccccc1)C(=O)N(C)c1ccccc1 [PF-74]		3.79 ± 0.39	0.0266	0.07 ± 0.01	58.19 ± 12.54	> 294	0.047 ± 0.0006	2114.6	0.52 to 0.9	30 to 78	42	0.0	106.1	114.19
C[C@]12CC[C@H]3[C@@H](CCC4=CC(=O)CC[C@@]43C)[C@@H]1CC[C@@H]2O [Testosterone]												4.8	95.8	
